Test results published in patent publication US20240238363A1 (priority 2020, published 2024).

Experiments:
CXCR4 [1] = conditions: in vivo; cited from earlier work
CXCR4 [2] = biological target: CXCR4 (Mus musculus, UniProt P70658); conditions: FIG. 2A; CXCR4 tropic gp120; cultured mouse hippocampal neurons
Method: (§1) Aβd/t was isolated from medium of cultured 7PA2 cells, a CHO cell line expressing a form of human APP found in Familial AD. The amount of ABd/t is quantified by Western blot with standards of synthetic Aβ monomer. Neuronal cultures, fixation, permeabilization, blocking and immunostaining is performed starting with E16.5 mouse hippocampal neurons by common methods in broad use.
(§2) Images of fixed neurons immunostained for cofilin, growth cones and nuclei captured across the entire coverslip are exported to ImageJ. Macro functions are applied to set local threshold and shape/size segmentation for both the cofilin and growth cone antibodies. Cofilin stained material that is not within neurites is eliminated. Results are reported as rods/nucleus, number of rods per area, rods as percent of total area, or, if NeuN stained or identified morphologically, rods per neuron.

[3] = tested on: dendritic spine morphology, dendritic arborization and functional deficits; conditions: animal model of HIV cognitive decline; cited from earlier work
[4] = tested on: cognitive deficits in HAND; conditions: phase 2 human trials and brain scans; cited from earlier work
[5] = tested on: cofilin rods in cultured mouse hippocampal neurons; format: cell-based
Method: as §1, §2
(§3) Amyloid beta (Aβ) trimer was added to pure cultures of mouse hippocampal neurons, devoid of immune cells, microglia, and their secreted inflammatory mediators to evaluate actin dynamics and cofilin-rod formation. […] The relevance is that rod pathology leads to synapse loss in people that correlates with dementia.

[6] = tested on: growth cones in pure cultures of mouse hippocampal neurons; conditions: FIG. 5; Aβ trimer-treated neurons, 2G13 antibody stain
Method: as §1, §2, §3

CCR5 [7] = biological target: T1, CCR5 (Mus musculus, UniProt P51682); conditions: pharmacologic blockade of CCR5; cited from earlier work
CCR5 [8] = biological target: T1, CCR5; conditions: FIG. 2A; CCR5 tropic gp120; cultured mouse hippocampal neurons
Method: as §1, §2

T1 sequence (P51682 whole entry): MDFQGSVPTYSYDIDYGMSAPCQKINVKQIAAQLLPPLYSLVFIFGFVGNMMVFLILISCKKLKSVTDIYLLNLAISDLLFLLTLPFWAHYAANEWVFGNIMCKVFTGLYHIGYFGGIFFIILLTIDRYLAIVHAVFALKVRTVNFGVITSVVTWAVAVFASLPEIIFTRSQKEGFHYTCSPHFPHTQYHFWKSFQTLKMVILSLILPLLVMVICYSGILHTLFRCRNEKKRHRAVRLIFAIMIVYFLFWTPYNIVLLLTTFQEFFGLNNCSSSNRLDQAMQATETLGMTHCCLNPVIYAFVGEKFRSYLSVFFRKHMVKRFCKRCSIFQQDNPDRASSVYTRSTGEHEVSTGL
Chain of CXCR4 (Mus musculus, UniProt P70658) (P70658 whole entry): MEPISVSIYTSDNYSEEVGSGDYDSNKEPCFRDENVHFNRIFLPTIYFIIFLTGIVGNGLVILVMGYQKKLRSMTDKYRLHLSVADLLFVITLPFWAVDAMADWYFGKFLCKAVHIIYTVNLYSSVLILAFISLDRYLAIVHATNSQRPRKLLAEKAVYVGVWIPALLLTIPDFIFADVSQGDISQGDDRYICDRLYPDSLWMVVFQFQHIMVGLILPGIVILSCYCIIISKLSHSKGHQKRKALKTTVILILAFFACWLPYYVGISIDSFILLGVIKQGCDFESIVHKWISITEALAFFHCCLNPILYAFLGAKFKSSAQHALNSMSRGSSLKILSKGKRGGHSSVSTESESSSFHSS

c1cc(CN2CCCNCCNCCCNCC2)ccc1CN1CCCNCCNCCCNCC1 [AMD3100]
recovery after traumatic brain injury (CXCR4 [1]): improved recovery | inhibition of gp120-induced cofilin-rod formation through CXCR4 (CXCR4 [2]): inhibited

Dala1-peptide T-amide [DAPTA]
dendritic spine morphology, dendritic arborization and functional deficits [3]: protection of dendritic spine morphology, expansion of dendritic arborization and reversal of functional deficits | cognitive deficits in HAND [4]: able to reverse cognitive deficits

all-D-ASTTTNYT [RAP-310]
block Aβ-induced formation of cofilin rods (percent of neurons expressing cofilin-rods) [5]: block | block TNF-induced formation of cofilin rods [5]: block

all-D-TTNYT [RAP-103]
area within the neurons occupied by cofilin-rods, caused by amyloid beta (Aβ) [5]: reducing | area within the neurons occupied by cofilin-rods, caused by pre-formed fibrils (PPF) of alpha-synuclein [5]: reducing | block Aβ-induced formation of cofilin rods (percent of neurons expressing cofilin-rods) [5]: block | block TNF-induced formation of cofilin rods [5]: block | cofilin rod-like structures at the ends of dendrites [5]: eliminated | growth cone formation [6]: promote growth cone formation

maraviroc
dendritic spines and neurite cortical projections after stroke and traumatic brain injury (CCR5 [7]): preservation of dendritic spines and new patterns of neurite cortical projections | early pathology of synapse loss (cofilin-rod formation) induced by beta-amyloid (Aβ-trimer/dimer) ([5]; FIG. 2B, blocking neuronal CCR5): can be reversed | inhibition of gp120-induced cofilin-rod formation through CCR5 (CCR5 [8]): inhibited
